“Also recorded” adds a separate entry of the source.

What all share (assay type): cell-based, mice
Experiment [1] deals with MRL/lpr Mφs. The experiment can be described thus: Lysosome acidification after IgG-IC stimulation, ratiometric flow cytometry (relative phagosomal pH). Conditions: MRL/lpr Mφs/BMMFs stimulated with IgG-ICs; inhibitor added 2 hours prior and left on. The procedure:
(§1) FIGS. 6A-6B. […] (6A). BMMφs from B6 and MRL/lpr mice were stimulated with IgG-ICs±TGX-221 (p110β), IC87114 (p110δ), or Torin1 (mTorC1/C2), and ratiometric flow cytometry was used to quantify the relative phagosomal pH. (6B). Cells were pre-treated with drugs (for 2 hr) and given IgG-ICs. IgG-ICs were removed after 2 hr. Cells remained on drug for the duration of the experiment. At 72 hrs, levels of surface bound IgG-ICs were analyzed by flow cytometry. All values are normalized to B6 untreated. n=3-7.
FIGS. 9A-9C. […] (9A). BMMφs (left panel) or splenic CD11b+ myeloid cells from B6 and MRL/lpr (right panel) were stimulated with IgG-ICs±SM-PEG (1, 2) (5 μg/mL) or control SM-PEG […] (5 μg/mL), and ratiometric flow cytometry was used to quantify the relative phagosomal pH. For internal control, cells were treated with concanamycin A (CMA) 2 hrs prior to IgG-ICs treatment (T0+CMA) to inhibit lysosomal pH change. 2-7 mice, >2 experiments. (9B). BMMφs (left panel) or splenic CD11b+ myeloid cells (right panel) were stimulated with SM-PEG (1, 2) or control SM-PEG (2, 1), or left unstimulated for 30 min or 60 min. At each time points, fixed cells were analyzed for surface bound nucleosomes. 2 mice, 2 experiments. (9C). BMMφs were stimulated with IgG-ICs±SM-PEG(1, 2) (5 μg/mL) for 1 hr, then pAKT (Ser/Thr) and pSHIP1 levels were assessed by flow cytometry. Phospho-proteins were normalized to isotype controls and the levels of total protein. 4 mice, 4 experiments.
The acidotropic dye LysoSensor™ Yellow/Blue can be used to quantify the pH or lysosomes using ratiometric imaging. […] For this adaptation, we loaded cells with an acidotropic dye and concurrently analyzed cells by microscopy (with pH standards) and flow cytometry. […]
Cells were incubated (37° C., 5% CO2) for 2 hours prior to the addition of 40 μL of IgG-ICs in R10 media (as above). […] At each time points, LysoSensor™ (2 mg/mL) was added and incubated for 15 min, then, analyzed by flow cytometry. […] Relative pH was quantified by ratioing the MFIs from the emission channels (450/20 nm, 585/42 nm) (normalized to concanamycin A control). […]
On the technique in general: A flow cytometer gives signals particle by particle.

Experiment [2] deals with MRL/lpr Mφs. The experiment can be described thus: Recycling of IgG-IC flow cytometry (surface bound IgG-ICs). Conditions: pre-treated with drugs 2 hr, surface IgG-ICs at 72 hrs. The protocol: as §1
Cells (0.25×10^6) were rested in R10 media for 1 hr at 37° C. prior to the addition of any reagents. IgG-ICs were added, incubated for given duration, and removed at each time points. […]
BMMφs were incubated (37° C., 5% CO2) with 40 μL Alexa Fluor® 488-labeled IgG-ICs in R10 media (as above). To quantify surface bound ICs at 0 hours, phagocytic uptake was impaired by culturing with IgG-ICs on ice for 2 hours. […] One sample was incubated with an anti-Alexa Fluor® 488 antibody (quenches Alexa Fluor® 488 fluorescence), while the other sample was left in FACS media for 30 min on ice. […] Surface bound IgG-ICs were calculated by subtracting the MFI of the quenched sample (intracellular IgG-ICs) from the MFI of the unquenched sample (total IgG-ICs). […]

The test system of a further experiment is MRL/lpr BMMφ. The experiment can be described thus: mTOR localization by confocal imaging. Conditions: MRL/lpr BMMφs; Torin1 250 ng/mL for 2 hrs. The procedure:
FIGS. 5A-5B. Localization of mTOR is defective in MRL/lpr BMMφ. (5A-5B). Unstimulated BMMφs cultured±Torin1 (250 ng/mL) for 2 hrs were examined for mTOR localization with CD11b by confocal imaging. Colocalization of mTOR to membrane (CD11b) is quantitated by mander's coefficient (5A). Total cellular mTOR levels were quantitated using ImageJ software (5B); 3 exp, 2-3 mice, 10-29 cells.
BMMφs were cultured with IgG-ICs in R10 media at 37° C. For measuring lipid rafts fluorescently labeled CTx was added to the culture 30 min prior to fixation. For the nuclear stain, hoechst was added 15 min prior to fixation. Mφs were fixed with 2% paraformaldehyde, then incubated at 4° C. for 15 min. Cells were blocked in 2.4G2 for 30 min at 4° C. in FACs media (PBS with 2% FBS, 0.02% NaN3), washed, and stained with primary and corresponding secondary antibodies in permeabilization buffer (PBS with 0.05% Saponin and 0.5% BSA) for 30 min at 4° C. Mφs were imaged in FACs media or resuspended in FluorSave™ and imaged. […] Data were analyzed using ImageJ. Colocalization was measured by calculating the Mander's coefficient (colocalized pixels/total fluorescent pixels) in all the cells imaged.

For a further experiment, the system named is B6 MFs. The experiment can be described thus: Recycling of IgG-ICs in B6 MFs treated with concanamycin A. The protocol:
BMMφs were incubated (37° C., 5% CO2) with 40 μL Alexa Fluor® 488-labeled IgG-ICs in R10 media (as above). To quantify surface bound ICs at 0 hours, phagocytic uptake was impaired by culturing with IgG-ICs on ice for 2 hours. This was sufficient to allow the ICs to bind to the surface of the cell but not be phagocytosed. For all other time points, cells were incubated (37° C., 5% CO2) for 2 hours, then media was replaced to remove all unbound ICs. At indicated time points, cells were blocked in 2.4G2 for 30 min on ice in FACS media, washed, and split into 2 samples. One sample was incubated with an anti-Alexa Fluor® 488 antibody (quenches Alexa Fluor® 488 fluorescence), while the other sample was left in FACS media for 30 min on ice. Both samples were washed and fixed with 2% paraformaldehyde and incubated at 4° C. for 15 min. Surface bound IgG-ICs were calculated by subtracting the MFI of the quenched sample (intracellular IgG-ICs) from the MFI of the unquenched sample (total IgG-ICs). Values were normalized to B6 0 hr.

Take `Cc1ccccc1-n1c(Cn2cnc3c(N)ncnc32)nc2cccc(C)c2c1=O` [IC87114]: the lysosome acidification entry with MRL/lpr Mφs [1] is “restored lysosome acidification to levels comparable to B6; also recorded: restored lysosomal acidification”. For the same compound, the “recycling of IgG-ICs (surface bound IgG-ICs)” value with MRL/lpr Mφs [2] was “prevented the recycling of IgG-ICs”.
As to `Cc1cc(C(C)Nc2ccccc2)c2nc(N3CCOCC3)cc(=O)n2c1` (stereo not shown) [TGX-221], the lysosome acidification result in the experiment with MRL/lpr Mφs [1] is “restored lysosome acidification to levels comparable to B6; also recorded: restored lysosomal acidification”. For the same compound, in the experiment with MRL/lpr Mφs [2], the “recycling of IgG-ICs (surface bound IgG-ICs)” value is recorded as “prevented the recycling of IgG-ICs”.
For the compound `CCC(=O)N1CCN(c2ccc(-n3c(=O)ccc4cnc5ccc(-c6cnc7ccccc7c6)cc5c43)cc2C(F)(F)F)CC1` [Torin1], the lysosome acidification result in the experiment with MRL/lpr Mφs [1] is listed as “restored lysosome acidification to levels comparable to B6; also recorded: restored lysosomal acidification”. In addition, the mTOR localization result with MRL/lpr BMMφ is reported as “restored mTOR to a cytosolic location”.
`C/C=C/[C@H]1O[C@@](O)([C@@H](C)[C@H](O)[C@H](C)[C@H]2OC(=O)/C(OC)=C/C(C)=C/[C@@H](C)[C@@H](O)[C@@H](CC)[C@@H](O)[C@H](C)C/C(C)=C/C=C/[C@@H]2OC)C[C@@H](O[C@H]2C[C@@H](O)[C@H](OC(N)=O)[C@@H](C)O2)[C@@H]1C` [concanamycin A]: the “recycling of IgG-ICs” value in the experiment on B6 MFs is reported as “promotes the recycling of IgG-ICs”.

For the origin of these results see patent US20250109216A1, “COMPOSITIONS AND METHODS FOR CROSSLINKING FC RECEPTORS” (The University of North Carolina at Chapel Hill, priority 2016, published 2025).
